Test results: article PMC9173702 (ACS chemical biology, 2022)
Blank lines part the entries; values can stand above or below the compound they belong to.

Assays:
mice = assay: In vivo glucose tolerance test (GTT); parameters: species or system mouse; settings: male B6 mice, 16 h fast, 10 nmol/kg IP peptide, then 2 g/kg IP glucose; blood glucose 0-120 min; n = 8; one-way ANOVA, Dunnett's post-test
Protocol: Given the promising activation and stability data, we next tested our peptides in vivo using a standard glucose tolerance test (GTT). More specifically, following a 16h fast, mice were injected intraperitoneally (IP) with 10 nmol/kg peptide followed by 2 g/kg of glucose.
In Vivo GTT Test: Male B6 mice at 10−12 weeks of age were housed (8 mice/cage) at a constant RT of 24 °C on a normal day-light cycle and provided a standard diet ad libitum. After 1 week of acclimatization, B6 mice (n = 8 per treatment arm) were fasted for 16 h overnight, and the following morning baseline blood glucose levels were measured (OneTouch), followed by intraperitoneal (IP) injection of vehicle (saline) or the indicated peptide (10 nmol/kg). Thirty minutes later, the mice were treated with a bolus IP injection of glucose (2 g/kg, 20% aqueous solution), followed by serial blood glucose monitoring at 0, 15, 30, 60, and 120 min. Samples for the measurement of blood glucose were obtained from the saphenous vein and collected into heparinized capillary tubes. All animal experiments were approved by and performed in accordance with the guidelines and regulations set forth by the Institutional Animal Care and Use Committee of the Dana-Farber Cancer Institute.

[1] = Solubility of stock solution for CD spectroscopy; format: physicochemical; settings: 5 mM stock in 10% acetonitrile
[2] = Human serum stability assay (RP-HPLC); settings: 50% (v/v) human serum, 50 μM peptide, 37 °C, up to 48 h, n = 3
Protocol: Human Serum Stability Assay: Stock solutions of the peptides (10 mM in DMSO) and reconstituted normal human serum (Thermo Scientific) were pre-equilibrated to 37 °C for 15 minutes in separate tubes. For each replicate, peptides and serum were combined to a final concentration of 50 μM and 50% (v/v) respectively, final volume of 150 μL. The reaction tubes were then incubated at 37 °C with 300 rpm shaking in an Eppendorf ThermoMixer. At each time point, 20 μL of the reaction was taken from each replicate and diluted with four-fold excess of cold acetone. The serum proteins were allowed to precipitate for 15 minutes at -20 °C and were removed by centrifugation at 14,000 g, 4 °C for 10 minutes. The supernatant was transferred to a new tube, diluted with the same volume of water, and were stored at -20 °C until HPLC analysis. Chromatographic separations were performed on a C18 reversed phase analytical column (Higgins Analytical, 150x4.6 mm, 5 μm pore size) using a 30-50% B linear gradient over 30 minutes. Solvent A consisted of 0.1% (v/v) TFA in water, and solvent B contained 90% acetonitrile, 0.1% TFA in water.

[3] = clinically marketed as Forteo; cited from earlier work

Compound: CCCCCCCCCCCCCCCCCCOCCOCCOCCOCCOCCC(=O)N[C@@H](CO)C(=O)NCCCC[C@H](NC(=O)[C@H](C)NC(=O)[C@H](C)NC(=O)[C@H](CCC(N)=O)NC(=O)CNC(=O)[C@H](CCC(=O)O)NC(=O)[C@H](CC(C)C)NC(=O)[C@H](Cc1ccc(O)cc1)NC(=O)[C@H](CO)NC(=O)[C@H](CO)NC(=O)[C@@H](NC(=O)[C@H](CC(=O)O)NC(=O)[C@H](CO)NC(=O)[C@@H](NC(=O)[C@H](Cc1ccccc1)NC(=O)[C@@H](NC(=O)CNC(=O)[C@H](CCC(=O)O)NC(=O)C(C)(C)NC(=O)[C@@H](N)Cc1c[nH]cn1)[C@@H](C)O)[C@@H](C)O)C(C)C)C(=O)N[C@@H](CCC(=O)O)C(=O)N[C@@H](Cc1ccccc1)C(=O)N[C@H](C(=O)N[C@@H](C)C(=O)N[C@@H](Cc1c[nH]c2ccccc12)C(=O)N[C@@H](CC(C)C)C(=O)N[C@H](C(=O)N[C@@H](CCCCN)C(=O)NCC(=O)N[C@@H](CCCNC(=N)N)C(=O)NCC(=O)O)C(C)C)[C@@H](C)CC [G1]
glycemic control in acute GTT (blood glucose AUC) compared to unmodified GLP-1 (mice): statistically significant glycemic control

solubility as stock [1]: not soluble
stability in human serum (in words) [2]: almost no sign of degradation up to 48 h
Compound: CC[C@H](C)[C@H](NC(=O)[C@H](Cc1ccccc1)NC(=O)[C@H](CCC(=O)O)NC(=O)[C@H](CCCCNC(=O)COCCOCCNC(=O)COCCOCCNC(=O)CC[C@H](NC(=O)CCCCCCCCCCCCCCCCC(=O)O)C(=O)O)NC(=O)[C@H](C)NC(=O)[C@H](C)NC(=O)[C@H](CCC(N)=O)NC(=O)CNC(=O)[C@H](CCC(=O)O)NC(=O)[C@H](CC(C)C)NC(=O)[C@H](Cc1ccc(O)cc1)NC(=O)[C@H](CO)NC(=O)[C@H](CO)NC(=O)[C@@H](NC(=O)[C@H](CC(=O)O)NC(=O)[C@H](CO)NC(=O)[C@@H](NC(=O)[C@H](Cc1ccccc1)NC(=O)[C@@H](NC(=O)CNC(=O)[C@H](CCC(=O)O)NC(=O)C(C)(C)NC(=O)[C@@H](N)Cc1cnc[nH]1)[C@@H](C)O)[C@@H](C)O)C(C)C)C(=O)N[C@@H](C)C(=O)N[C@@H](Cc1c[nH]c2ccccc12)C(=O)N[C@@H](CC(C)C)C(=O)N[C@H](C(=O)N[C@@H](CCCNC(=N)N)C(=O)NCC(=O)N[C@@H](CCCNC(=N)N)C(=O)NCC(=O)O)C(C)C [Semaglutide]

Compound: PTH(1–34): clinically marketed by Eli Lilly as Forteo
half-life in the blood [3]: ~ 5 minutes
